This note sets out measurements from US20260184707A1, “PHARMACEUTICAL COMPOUNDS FOR THE TREATMENT OF COMPLEMENT MEDIATED DISORDERS” (ALEXION PHARMACEUTICALS, INC., priority 2022, published 2026).

The test deals with T1, Human complement C1s enzyme (Homo sapiens, UniProt P09871).
T1 construct: purified from human serum, Complement Technology, Inc; purchased Complement Technology, Inc; host or cells: human serum (plasma-derived native protein)
T1 sequence (P09871 438-688 limits assumed): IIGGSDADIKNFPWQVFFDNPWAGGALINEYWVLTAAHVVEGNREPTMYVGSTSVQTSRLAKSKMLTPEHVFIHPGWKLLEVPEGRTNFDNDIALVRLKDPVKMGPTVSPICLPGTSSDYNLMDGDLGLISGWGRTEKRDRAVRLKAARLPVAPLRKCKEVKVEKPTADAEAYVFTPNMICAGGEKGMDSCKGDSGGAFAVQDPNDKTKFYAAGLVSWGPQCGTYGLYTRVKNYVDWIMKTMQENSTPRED
T1 sequence (P09871 16-437 partner limits assumed): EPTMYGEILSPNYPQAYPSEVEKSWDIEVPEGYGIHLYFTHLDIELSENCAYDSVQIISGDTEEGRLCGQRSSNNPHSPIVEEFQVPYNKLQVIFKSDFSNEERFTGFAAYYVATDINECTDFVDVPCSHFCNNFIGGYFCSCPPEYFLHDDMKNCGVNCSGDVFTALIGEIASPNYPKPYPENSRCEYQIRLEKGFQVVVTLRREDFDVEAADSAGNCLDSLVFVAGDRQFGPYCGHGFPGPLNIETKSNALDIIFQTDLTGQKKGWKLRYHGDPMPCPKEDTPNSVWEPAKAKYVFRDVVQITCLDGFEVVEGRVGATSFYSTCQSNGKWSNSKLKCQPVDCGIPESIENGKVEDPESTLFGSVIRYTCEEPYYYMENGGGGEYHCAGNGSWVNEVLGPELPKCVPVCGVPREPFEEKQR
In words: Human C1s enzyme assay. Particulars: human complement C1s enzyme 1.16 nM, substrate Z-L-Lys-SBzl, A405; read-out: IC50 (Stars). The class given is biochemical. The protocol:
The […] values of the compounds of Table 1 were determined with the human C1s enzyme assay described below. Other standard complement assays are also available.
Human complement C1s enzyme (purified from human serum, Complement Technology, Inc.) at 1.16 nM final concentration was incubated with test compound at various concentrations for 5 min at room temperature in 50 mM Tris, 1 M NaCl, pH 7.5. A synthetic substrate Z-L-Lys-SBzl and DTNB (Ellman's reagent) were added to final concentrations of 100 μM each. Absorbance at 405 nm (A405) was recorded at 30 second intervals for […] using a microplate spectrophotometer. IC values were calculated by nonlinear regression of complement C1s reaction rates as a function of test compound concentration.
[…]; ND indicates a compound for which the IC50 value is not determined.

Molecules are shown by their SMILES.

With `O=C(Cn1c(-c2ccccc2)ncc(NCc2cc3ccc2CCc2ccc(cc2)CC3)c1=O)NCc1cc2cnccc2[nH]1` [Compound 43, 2-(5-((1,4(1,4)-dibenzena-cyclohexaphane-1(2)-ylmeth-yl)amino)-6-oxo-2-phenylpyr-imidin-1(6H)-yl)-N-((1H-pyr-rolo[3,2-c]pyridin-2-yl)meth-yl)acetamide], the concentration for half-maximal inhibition (IC50) was > 1000 nM.
Turning to `O=C(Cn1c(-c2ccccc2)ncc(N2CCn3c(nnc3C(F)(F)F)C2)c1=O)NCc1cc2cnccc2[nH]1` [Compound 44, N-((1H-pyrrolo[3,2-c]pyridin-2-yl)methyl)-2-(6-oxo-2-phen-yl-5-(3-(trifluoromethyl)-5,6-dihydro-[1,2,4]triazolo[4,3-a]pyrazin-7(8H)-yl)pyrimidin-1(6H)-yl)acetamide], the half-maximal inhibitory concentration (IC50) was 100 to 1000 nM.
For `COc1ccc(CCCNc2cnc(-c3ccccc3)n(CC(=O)NCc3cc4cnccc4[nH]3)c2=O)cc1` [Compound 45, N-((1H-pyrrolo[3,2-c]pyridin-2-yl)methyl)-2-(5-((3-(4-methoxyphenyl)propyl)amino)-6-oxo-2-phenylpyrimidin-1(6H)-yl)acetamide] the value was < 100 nM; for `O=C(Cn1c(-c2ccccc2)ncc(NCCCc2ccc(F)cc2)c1=O)NCc1cc2cnccc2[nH]1` [Compound 46, N-((1H-pyrrolo[3,2-c]pyridin-2-yl)methyl)-2-(5-((3-(4-fluorophenyl)propyl)amino)-6-oxo-2-phenylpyrimidin-1(6H)-yl)acetamide], < 100 nM; for `C[C@H](NC(=O)Cn1c(-c2ccccc2)cnc(NCCCc2ccccc2)c1=O)c1cc2cnccc2[nH]1` [Compound 47, (S)-N-(1-(1H-pyrrolo[3,2-c]pyridin-2-yl)ethyl)-2-(2-oxo-6-phenyl-3-((3-phenylpropyl)-amino)pyrazin-1(2H)-yl)-acetamide], > 1000 nM.
For `N#Cc1ccc(CCCNc2cnc(-c3ccccc3)n(CC(=O)NCc3cc4cnccc4[nH]3)c2=O)cc1` [Compound 48, N-((1H-pyrrolo[3,2-c]pyridin-2-yl)methyl)-2-(5-((3-(4-cyanophenyl)propyl)amino)-6-oxo-2-phenylpyrimidin-1(6H)-yl)acetamide] the value was < 100 nM.
For `O=C(Cn1c(-c2ccccc2)ncc(NC(=O)C2CCC(Oc3ccccc3)CC2)c1=O)NCc1cc2cnccc2[nH]1` (centres unmarked) [Compound 49, N-[6-oxo-1-[2-oxo-2-(1H-pyrrolo[3,2-c]pyridin-2-ylmethylamino)ethyl]-2-phenyl-pyrimidin-5-yl]-4-phenoxy-cyclohexanecarboxamide], the IC50 was < 100 nM.
For `O=C(Cn1c(-c2ccccc2)ncc(NC(=O)c2ccc(Oc3ccc(C(F)(F)F)cc3)cc2)c1=O)NCc1cc2cnccc2[nH]1` [Compound 50, N-(1-(2-(((1H-pyrrolo[3,2-c]pyridin-2-yl)methyl)amino)-2-oxoethyl)-6-oxo-2-phenyl-1,6-dihydropyrimidin-5-yl)-4-(4-(trifluoromethyl)phenoxy)-benzamide] the value was < 100 nM; for `O=C(Cn1c(-c2ccccc2)ncc(NC(=O)c2ccc(Oc3ccc(Br)cc3)cc2)c1=O)NCc1cc2cnccc2[nH]1` [Compound 51, N-(1-(2-(((1H-pyrrolo[3,2-c]pyridin-2-yl)methyl)amino)-2-oxoethyl)-6-oxo-2-phenyl-1,6-dihydropyrimidin-5-yl)-4-(4-bromophenoxy)benzamide], < 100 nM.
As to `O=C(Cn1c(-c2ccccc2)ncc(NC(=O)c2ccc(Oc3ccc(F)cc3)cc2)c1=O)NCc1cc2cnccc2[nH]1` [Compound 52, N-(1-(2-(((1H-pyrrolo[3,2-c]pyridin-2-yl)methyl)amino)-2-oxoethyl)-6-oxo-2-phenyl-1,6-dihydropyrimidin-5-yl)-4-(4-fluorophenoxy)benzamide], the IC50 was < 100 nM.
For `O=C(Cn1c(-c2ccccc2)ncc(NC(=O)c2ccc(Oc3cccnc3)cc2)c1=O)NCc1cc2cnccc2[nH]1` [Compound 53, N-(1-(2-(((1H-pyrrolo[3,2-c]pyridin-2-yl)methyl)amino)-2-oxoethyl)-6-oxo-2-phenyl-1,6-dihydropyrimidin-5-yl)-4-(pyridin-3-yloxy)benzamide] the value was < 100 nM; for `O=C(Cn1c(-c2ccccc2)ncc(NC(=O)c2ccc(Oc3ccc(F)cc3F)cc2)c1=O)NCc1cc2cnccc2[nH]1` [Compound 55, N-(1-(2-(((1H-pyrrolo[3,2-c]pyridin-2-yl)methyl)amino)-2-oxoethyl)-6-oxo-2-phenyl-1,6-dihydropyrimidin-5-yl)-4-(2,4-difluorophenoxy)benzamide], < 100 nM; for `O=C(Cn1c(-c2ccccc2)ncc(NC(=O)c2ccc(-c3cccs3)cc2)c1=O)NCc1cc2cnccc2[nH]1` [Compound 56, N-(1-(2-(((1H-pyrrolo[3,2-c]pyridin-2-yl)methyl)amino)-2-oxoethyl)-6-oxo-2-phenyl-1,6-dihydropyrimidin-5-yl)-4-(thiophen-2-yl)benzamide], < 100 nM.
In the case of `O=C(Cn1c(-c2ccccc2)ncc(NC(=O)c2ccc(Oc3ccccc3)o2)c1=O)NCc1cc2cnccc2[nH]1` [Compound 57, N-(1-(2-(((1H-pyrrolo[3,2-c]pyridin-2-yl)methyl)amino)-2-oxoethyl)-6-oxo-2-phenyl-1,6-dihydropyrimidin-5-yl)-5-phen-oxyfuran-2-carboxamide] it was < 100 nM; in that of `O=C(Cn1c(-c2ccccc2)ncc(NC(=O)c2cccc(Oc3ccccc3)c2)c1=O)NCc1cc2cnccc2[nH]1` [Compound 58, N-(1-(2-(((1H-pyrrolo[3,2-c]pyridin-2-yl)methyl)amino)-2-oxoethyl)-6-oxo-2-phenyl-1,6-dihydropyrimidin-5-yl)-3-phen-oxybenzamide], < 100 nM.
In the case of `O=C(Cn1c(-c2ccccc2)ncc(NC(=O)c2ccc(-n3cccc3)cc2)c1=O)NCc1cc2cnccc2[nH]1` [Compound 59, N-(1-(2-(((1H-pyrrolo[3,2-c]pyridin-2-yl)methyl)amino)-2-oxoethyl)-6-oxo-2-phenyl-1,6-dihydropyrimidin-5-yl)-4-(1H-pyrrol-1-yl)benzamide] it was < 100 nM.
On to `O=C(Cn1c(-c2ccccc2)cnc(NCc2ccc(-c3ccccc3)cc2)c1=O)NCc1cc2cnccc2[nH]1` [Compound 60, N-((1H-pyrrolo[3,2-c]pyridin-2-yl)methyl)-2-(3-(([1,1′-biphenyl]-4-ylmethyl)amino)-2-oxo-6-phenylpyrazin-1(2H)-yl)acetamide], for which the half-maximal inhibitory concentration (IC50) was < 100 nM.
In the case of `C[C@@H](Nc1cnc(-c2ccccc2)n(CC(=O)NCc2cc3cnccc3[nH]2)c1=O)c1ccc(Oc2ccccc2)cc1` [Compound 61, (R)—N-((1H-pyrrolo[3,2-c]pyridine-2-yl)methyl)-2-(6-oxo-5-((1-(4-phenoxyphenyl)ethyl)amino)-2-phenylpyrimidin-1(6H)-yl)acetamide], the 50% inhibitory concentration (IC50) was < 100 nM.
In the case of `C[C@H](Nc1cnc(-c2ccccc2)n(CC(=O)NCc2cc3cnccc3[nH]2)c1=O)c1ccc(Oc2ccccc2)cc1` [Compound 62, (S)-N-((1H-pyrrolo[3,2-c]pyr-idin-2-yl)methyl)-2-(6-oxo-5-((1-(4-phenoxyphenyl)ethyl)-amino)-2-phenylpyrimidin-1(6H)-yl)acetamide] it was < 100 nM.
For `O=C(Cn1c(-c2ccccc2)cnc(NCc2ccc(Oc3ccccc3)cc2)c1=O)NCc1cc2cnccc2[nH]1` [Compound 63, N-((1H-pyrrolo[3,2-c]pyridine-2-yl)methyl)-2-(2-oxo-3-((4-phenoxybenzyl)amino)-6-phenylpyrazin-1(2H)-yl)acetamide] the value was < 100 nM; for `O=C(Cn1c(-c2ccccc2)ncc(NCCCc2ccc3sc4ccccc4c3c2)c1=O)NCc1cc2cnccc2[nH]1` [Compound 64, N-((1H-pyrrolo[3,2-c]pyridin-2-yl)methyl)-2-(5-((3-(dibenzo [b,d]thiophen-2-yl)propyl)-amino)-6-oxo-2-phenylpyrimi-din-1(6H)-yl)acetamide], < 100 nM; for `O=C(Cn1c(-c2ccccc2)ncc(N2CC3CCC2C3)c1=O)NCc1cc2cnccc2[nH]1` (centres unmarked) [Compound 65, N-((1H-pyrrolo[3,2-c]pyridin-2-yl)methyl)-2-(5-(2-azabicyclo [2.2.1]heptan-2-yl)-6-oxo-2-phenylpyrimidin-1(6H)-yl)-acetamide], 100 to 1000 nM.
In the case of `NS(=O)(=O)COc1ccc(-c2ncc(NCCCc3ccccc3)c(=O)n2CC(=O)NCc2cc3cnccc3[nH]2)cc1` [Compound 67, N-((1H-pyrrolo[3,2-c]pyridine-2-yl)methyl)-2-(6-oxo-5-((3-phenylpropyl)amino)-2-(4-(sulfamoylmethoxy)phenyl)pyrimidin-1(6H)-yl)acetamide] it was < 100 nM.

Usually IC50 stands for the point on the concentration scale where inhibition reaches its midpoint.
